≈ marks a conversion by molar mass, not a printed value.
Assays:
[1] = Cytotoxicity against human 95-D cells; type: functional, cell-based
HeLa = experiment: Cytotoxicity against human HeLa cells; type: functional, cell-based; settings: Homo sapiens, HeLa
SGC-7901 = experiment: Cytotoxicity against human SGC7901 cells; type: functional, cell-based
P388 [2] = experiment: Cytotoxicity against mouse P388 cells; type: functional, cell-based
Bel-7402 = experiment: Cytotoxicity against human Bel7402 cells; type: functional, cell-based
[3] = Growth inhibition of H-Ras transformed rat Rat2 cells; type: functional
J82 = experiment: Growth inhibition of H-Ras expressing human J82 cells; type: functional
DU-145 = experiment: Cytotoxicity against human DU145 cells; type: functional, cell-based
[4] = Inhibition of rat microsomal 5-alpha reductase assessed as inhibition of conversion of [4-14C]testosterone to [4-14C] dihydrotestosterone after 10 mins
NUGC-3 = experiment: Cytotoxicity against human NUGC3 cells; type: functional, cell-based
[5] = biological target: T1, DNA topoisomerase 2-alpha (Homo sapiens, UniProt P11388); experiment: Inhibition of topoisomerase 2
T1 sequence (P11388 whole entry): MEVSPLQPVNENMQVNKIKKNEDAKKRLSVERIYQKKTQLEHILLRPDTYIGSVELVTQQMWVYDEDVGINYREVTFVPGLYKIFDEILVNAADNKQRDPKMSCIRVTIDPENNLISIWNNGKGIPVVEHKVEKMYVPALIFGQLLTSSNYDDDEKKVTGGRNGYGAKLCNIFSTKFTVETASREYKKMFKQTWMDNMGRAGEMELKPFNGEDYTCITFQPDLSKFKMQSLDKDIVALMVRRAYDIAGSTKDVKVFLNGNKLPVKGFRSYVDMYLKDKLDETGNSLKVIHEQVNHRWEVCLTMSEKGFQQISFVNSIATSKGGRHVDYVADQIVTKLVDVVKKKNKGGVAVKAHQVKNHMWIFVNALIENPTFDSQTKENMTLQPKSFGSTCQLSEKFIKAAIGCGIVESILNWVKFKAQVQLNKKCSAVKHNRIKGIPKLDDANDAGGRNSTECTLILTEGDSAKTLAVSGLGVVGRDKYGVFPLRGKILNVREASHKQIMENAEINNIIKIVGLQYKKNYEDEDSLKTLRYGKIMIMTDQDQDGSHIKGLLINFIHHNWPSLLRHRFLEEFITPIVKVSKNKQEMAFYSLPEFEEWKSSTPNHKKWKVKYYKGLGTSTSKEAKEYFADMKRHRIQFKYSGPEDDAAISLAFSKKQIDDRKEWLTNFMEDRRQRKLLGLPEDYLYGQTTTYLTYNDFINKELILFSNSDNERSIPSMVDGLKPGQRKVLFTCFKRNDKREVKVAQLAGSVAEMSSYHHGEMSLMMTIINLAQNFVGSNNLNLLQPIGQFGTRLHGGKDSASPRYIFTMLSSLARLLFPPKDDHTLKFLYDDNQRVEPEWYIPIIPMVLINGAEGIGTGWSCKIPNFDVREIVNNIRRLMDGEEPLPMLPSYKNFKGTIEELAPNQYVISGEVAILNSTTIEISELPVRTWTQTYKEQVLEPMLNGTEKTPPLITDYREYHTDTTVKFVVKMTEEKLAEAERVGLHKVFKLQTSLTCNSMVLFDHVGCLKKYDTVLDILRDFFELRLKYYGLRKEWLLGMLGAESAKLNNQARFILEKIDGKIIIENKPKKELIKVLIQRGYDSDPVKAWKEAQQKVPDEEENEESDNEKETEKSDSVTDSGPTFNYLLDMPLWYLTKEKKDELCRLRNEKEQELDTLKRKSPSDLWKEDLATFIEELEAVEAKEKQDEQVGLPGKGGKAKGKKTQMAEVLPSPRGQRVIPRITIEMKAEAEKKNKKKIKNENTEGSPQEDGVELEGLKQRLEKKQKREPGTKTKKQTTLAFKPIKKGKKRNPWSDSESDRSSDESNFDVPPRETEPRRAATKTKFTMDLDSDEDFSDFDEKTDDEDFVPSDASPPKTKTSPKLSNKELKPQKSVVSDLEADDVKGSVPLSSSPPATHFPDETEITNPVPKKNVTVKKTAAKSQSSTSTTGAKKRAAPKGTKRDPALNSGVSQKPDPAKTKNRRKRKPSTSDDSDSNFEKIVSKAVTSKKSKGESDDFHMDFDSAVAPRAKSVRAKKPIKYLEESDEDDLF

L1210 = experiment: Cytotoxicity against mouse L1210 cells; type: functional, cell-based
COLO 205 = experiment: Cytotoxicity against human COLO205 cells; type: functional, cell-based
P388 [6] = experiment: Antitumor activity against mouse P388 cells allografted in CDF1 mouse assessed as increase in survival rate at 10 mg/kg; type: functional
P388 [7] = experiment: Antiproliferative activity against mouse P388 cells; type: functional, cell-based
P388 [8] = experiment: Antitumor activity against mouse P388 cells allografted in CDF1 mouse assessed as increase in survival rate at 3 mg/kg; type: functional
HL-60 = experiment: Cytotoxicity against human HL60 cells; type: functional, cell-based
[9] = test system: Lewis lung carcinoma cell line; experiment: Antitumor activity against mouse LLC cells allografted in mouse assessed as reduction in tumor size at 5 mg/kg, ip qd for 2 weeks measured on day 14 relative to control; type: functional; settings: route intraperitoneal
[10] = test system: Lewis lung carcinoma cell line; experiment: Antitumor activity against mouse LLC cells allografted in mouse assessed as reduction in tumor size at 10 mg/kg, ip qd for 2 weeks measured on day 14 relative to control; type: functional; settings: route intraperitoneal
[11] = test system: Lewis lung carcinoma cell line; experiment: Antitumor activity against mouse LLC cells allografted in mouse assessed as reduction in tumor size at 2 mg/kg, ip qd for 2 weeks measured on day 20 relative to control; type: functional; settings: route intraperitoneal
[12] = test system: Lewis lung carcinoma cell line; experiment: Antitumor activity against mouse LLC cells allografted in mouse assessed as reduction in tumor size at 2 mg/kg, ip qd for 2 weeks measured on day 14 relative to control; type: functional; settings: route intraperitoneal
[13] = test system: Lewis lung carcinoma cell line; experiment: Antitumor activity against mouse LLC cells allografted in mouse assessed as reduction in tumor size at 20 mg/kg, ip qd for 2 weeks measured on day 20 relative to control; type: functional; settings: route intraperitoneal
[14] = test system: Lewis lung carcinoma cell line; experiment: Antitumor activity against mouse LLC cells allografted in mouse assessed as reduction in tumor size at 10 mg/kg, ip qd for 2 weeks measured on day 20 relative to control; type: functional; settings: route intraperitoneal
[15] = test system: Lewis lung carcinoma cell line; experiment: Antitumor activity against mouse LLC cells allografted in mouse assessed as reduction in tumor size at 5 mg/kg, ip qd for 2 weeks measured on day 20 relative to control; type: functional; settings: route intraperitoneal
[16] = test system: Lewis lung carcinoma cell line; experiment: Antitumor activity against mouse LLC cells allografted in mouse assessed as reduction in tumor size at 20 mg/kg, ip qd for 2 weeks measured on day 14 relative to control; type: functional; settings: route intraperitoneal
Huh-7 = experiment: Cytotoxicity against human HuH7 cells; type: functional, cell-based
[17] = Cytotoxicity against human Hep3B cells; type: functional, cell-based, Hep 3B2
K562 = experiment: Cytotoxicity against human K562 cells; type: functional, cell-based
HepG2 = experiment: Cytotoxicity against human HepG2 cells; type: functional, cell-based
[18] = Cytotoxicity against mouse Meth-A cells; type: functional, cell-based
DNA topoisomerase 1 [19] = biological target: T2, DNA topoisomerase 1 (Homo sapiens, UniProt P11387); experiment: Inhibition of topoisomerase 1
T2 sequence (P11387 whole entry): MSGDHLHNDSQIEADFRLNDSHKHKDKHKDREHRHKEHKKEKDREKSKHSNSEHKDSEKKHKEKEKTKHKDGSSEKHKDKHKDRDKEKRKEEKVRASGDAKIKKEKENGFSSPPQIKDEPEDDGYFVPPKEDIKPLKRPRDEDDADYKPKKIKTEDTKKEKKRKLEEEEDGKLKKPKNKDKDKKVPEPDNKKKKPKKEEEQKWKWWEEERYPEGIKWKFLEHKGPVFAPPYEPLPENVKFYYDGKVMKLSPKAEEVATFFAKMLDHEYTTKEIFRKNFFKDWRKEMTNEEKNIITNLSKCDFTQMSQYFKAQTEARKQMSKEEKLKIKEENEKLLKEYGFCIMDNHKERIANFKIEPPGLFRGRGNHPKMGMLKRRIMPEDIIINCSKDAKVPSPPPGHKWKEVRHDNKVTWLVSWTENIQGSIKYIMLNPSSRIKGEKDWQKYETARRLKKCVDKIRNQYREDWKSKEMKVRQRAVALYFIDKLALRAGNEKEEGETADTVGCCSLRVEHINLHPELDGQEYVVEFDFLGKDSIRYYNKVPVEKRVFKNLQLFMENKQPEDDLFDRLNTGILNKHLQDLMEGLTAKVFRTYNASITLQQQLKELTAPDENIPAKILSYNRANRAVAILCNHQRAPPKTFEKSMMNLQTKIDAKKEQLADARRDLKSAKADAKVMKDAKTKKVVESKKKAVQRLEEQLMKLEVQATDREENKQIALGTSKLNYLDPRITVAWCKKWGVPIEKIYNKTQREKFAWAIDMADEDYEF

[20] = Cytotoxicity against mouse LLC cells; type: functional, cell-based; settings: Lewis lung carcinoma
T47D = experiment: Cytotoxicity against human T47D cells; type: functional, cell-based
CCRF S-180 = experiment: Cytotoxicity against mouse S180 cells; type: functional, cell-based
Mus musculus = species on record: Mus musculus; experiment: Inhibition of TPA-induced tumor progression in mouse skin at 0.2 umol measured at week 20; type: functional
A549 = experiment: Cytotoxicity against human A549 cells; type: functional, cell-based
[21] = test system: Lewis lung carcinoma cell line; experiment: Antitumor activity against mouse LLC cells allografted in C57B/6 mouse assessed as inhibition of tumor metastasis at 28 mg/kg relative to control; type: functional; design: scale not given: the % may be the effect or the level left
[22] = test system: Lewis lung carcinoma cell line; experiment: Antitumor activity against mouse LLC cells allografted in C57B/6 mouse assessed as tumor growth inhibition at 28 mg/kg relative to control; type: functional; settings: read-out: TGI
DNA topoisomerase 1 [23] = biological target: T2, DNA topoisomerase 1; experiment: Inhibition of topoisomerase 1 in human HuH7 cells; type: cell-based, Huh-7
[24] = biological target: T1, DNA topoisomerase 2-alpha; experiment: Inhibition of topoisomerase 2a in human HuH7 cells; type: cell-based, Huh-7

`CCO[C@@H]1C[C@H]2C(C)(C)[C@H](OC(C)=O)CC[C@]2(C)C2=C1[C@]1(C)[C@@H](OC(C)=O)C[C@H]([C@H](C)C(C/C=C(\C)C(=O)O)OC(C)=O)[C@@]1(C)CC2` (some centres not stated) gave an IC50 [1] of 46.5 µM and an IC50 (HeLa) of 59.1 µM.

Molecule `COc1cc([C@@H]2c3cc4c(cc3[C@@H](O[C@@H]3O[C@@H]5CO[C@@H](C)O[C@H]5[C@H](O)[C@H]3O)[C@H]3COC(=O)[C@H]23)OCO4)cc(OC)c1O` [ETOPOSIDE] has an IC50 (SGC-7901) of 0.08 µM, an IC50 (P388 [2]) of 0.08 µM and an IC50 (Bel-7402) of 0.08 µM. For the same molecule, the IC50 (HeLa) was 0.08 µM.

For `CC(C)=CCC[C@@H](C(=O)O)[C@H]1CC[C@@]2(C)C3=CC[C@H]4C(C)(C)[C@@H](O)CC[C@]4(C)C3=CC[C@]12C` [DEHYDROTRAMETENOLIC ACID], the GI50 [3] was 39.2 µM and the GI50 (J82) was 26.7 µM.

Molecule `C=C(CC[C@@H](C(=O)O)[C@H]1[C@H](O)C[C@@]2(C)C3=CC[C@H]4C(C)(CO)C(=O)CC[C@]4(C)C3=CC[C@]12C)C(C)C` (some centres not stated) has an IC50 (DU-145) of 49.7 µM.

`C/C(=C/CC[C@@H](C)[C@H]1C[C@H](O)[C@@]2(C)C3=CC[C@H]4C(C)(C)C(=O)CC[C@]4(C)C3=CC[C@]12C)C(=O)O` [GANODERIC ACID TR] showed an IC50 [4] of 8.5 µM.

Molecule `C=C(CCC(C(=O)O)[C@H]1CC[C@@]2(C)C3=CC[C@H]4C(C)(C)C(=O)CC[C@]4(C)C3=CC[C@]12C)C(C)C` (some centres not stated) [DEHYDROEBURICONIC ACID] has an IC50 (NUGC-3) of 38.4 µM and an IC50 [5] of 4.6 µM.

With `CC[C@@]1(O)C(=O)OCc2c1cc1n(c2=O)Cc2cc3cc(O)ccc3nc2-1` [HYDROXYCAMPTOTHECIN] the IC50 [1] was 21.3 µM and the IC50 (HeLa) was 29.5 µM.

In the case of `CC(C)=CCCC(C(=O)O)[C@H]1CC[C@@]2(C)C3=CC[C@H]4C(C)(C)C(=O)CC[C@]4(C)C3=CC[C@]12C` (some centres not stated) [DEHYDROTRAMETENONIC ACID], the IC50 (NUGC-3) is reported as 63.6 µM and the IC50 [5] is reported as 37.5 µM.

For `C/C(=C\CC[C@@H](C)[C@H]1C[C@H](O)[C@@]2(C)C3=CC[C@H]4C(C)(C)C(=O)CC[C@]4(C)C3=CC[C@]12C)CO`, the IC50 (HeLa) was 1 µM and the IC50 [4] was 41.9 µM.

Molecule `CC(C)=CC[C@@H](O)[C@@H](C)[C@H]1CC[C@@]2(C)C3=C(CC[C@]12C)[C@@]1(C)CC[C@H](O)C(C)(C)[C@@H]1CC3` [INOTODIOL] has an IC50 (L1210) of 110 µM, an IC50 (COLO 205) of 171 µM and a survival at 10 mg/kg (P388 [6]) of 20.8%. The IC50 (P388 [7]) was 13.9 µM, the survival at 3 mg/kg (P388 [8]) was 9.7% and the IC50 (HL-60) was 25 µM.

For `C[C@H](CCC=C(CO)CO)[C@H]1CC[C@@]2(C)C3=CC[C@H]4C(C)(C)C(=O)CC[C@]4(C)C3=CC[C@]12C` [GANODERIOL F], the T/C [9] was 64%, the T/C [10] was 54% and the IC50 (HeLa) was 5 µM. The T/C [11] was 45%, the T/C [12] was 38% and the T/C [13] was 54%. For the same molecule, the T/C [14] was 63%, the T/C [15] was 79% and the T/C [16] was 48%. For the same molecule, the IC50 (Huh-7) was 8.5 µM, the IC50 [17] was 25.3 µM and the IC50 (K562) was 4 µM. For the same molecule, the IC50 (HepG2) was 17 µM, the IC50 [18] was 10.1 µg/mL (≈ 22.2 µM) and the IC50 (DNA topoisomerase 1 [19]) was 106 µM. It also gave an IC50 [5] of 17 µM, an IC50 [20] of 2 µg/mL (≈ 4.4 µM) and an IC50 (T47D) of 3 µg/mL (≈ 6.6 µM). For the same molecule, the IC50 (CCRF S-180) was 7.1 µg/mL (≈ 15.6 µM).

In the case of `C=C(CC[C@@H](C(=O)O)[C@H]1[C@H](O)C[C@@]2(C)C3=CC[C@H]4C(C)(C)C(=O)CC[C@]4(C)C3=CC[C@]12C)C(C)C` [POLYPORENIC ACID B], the “inhibition (INH)” value (Mus musculus) is reported as 83% and the IC50 (A549) is reported as 19.8 µM.

In the case of `CC(=O)O[C@@H](C/C=C(\C)C(=O)O)[C@@H](C)[C@H]1C[C@H](OC(C)=O)[C@@]2(C)C3=CC[C@H]4C(C)(C)[C@H](OC(C)=O)CC[C@]4(C)C3=CC[C@]12C` [GANODERIC ACID T], the Activity [21] is reported as 78% and the inhibition in vivo at 28 mg/kg [22] is reported as 63%.

In the case of `C=C(CC[C@@H](C(=O)O)[C@H]1[C@H](O)C[C@@]2(C)C3=CC[C@H]4C(C)(C)[C@H](OC(C)=O)CC[C@]4(C)C3=CC[C@]12C)C(C)C`, the “inhibition (INH)” value (Mus musculus) is reported as 92%.

`C/C(=C/CC[C@@H](C)[C@H]1CC[C@@]2(C)C3=C(CC[C@]12C)[C@@]1(C)CCC(=O)C(C)(C)[C@@H]1CC3=O)C(=O)O` [GANODERIC ACID DM] gave an IC50 (HeLa) of 101 µM and an IC50 [4] of 10.6 µM.

`CC(=O)O[C@H]1C[C@H]([C@H](C)CC/C=C(\C)C(=O)O)[C@@]2(C)CC=C3C(=CC[C@H]4C(C)(C)[C@@H](O)CC[C@]34C)[C@]12C` [GANODERIC ACID X] gave an IC50 (DNA topoisomerase 1 [23]) of 55 µM and an IC50 [24] of 25 µM.

From ChEMBL document CHEMBL2203027, “Lanostanoids from fungi: a group of potential anticancer compounds” (J Nat Prod, 2012)
